Laboratory results as given in patent US12594276B2, “Inhibitors of human immunodeficiency virus replication” (ViiV Healthcare UK (No.5) Limited, priority 2024, dated 2026).

What was measured:
[1] = system: recombinant NL4-3 virus (nef section replaced with Renilla luciferase gene) in MT-2 cells; assay: HIV cell culture assay (antiviral activity, luciferase readout); type: cell-based; conditions: Renilla, NL43, MT-2 cells infected for 4-5 days with recombinant NL4-3 Renilla luciferase virus
How it was run: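 The reporter virus was produced by transfecting 293T cells with the NL4-3 nef/Renilla luciferase proviral clone. MT-2 cells were infected for 4–5 days with serial compound dilutions present. Luciferase was read with a live-cell substrate, and EC50 came from the exponential median-effect equation.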

[2] = Compound cytotoxicity, XTT-based colorimetric assay; type: cell-based; conditions: human; uninfected MT2 cells, day 4, XTT; read-out: CC50
How it was run: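 Cells seeded as for the antiviral assay but left uninfected (MT2). Compound exposure continued to day 4. XTT reagent added and colour read. CC50 calculated.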

Compound	EC50 [1] [nM]	CC50 at 4 days [2] [nM]
Cc1cc(C2(F)CCC(F)(F)CC2)nc2nc([C@H](Cc3cc(F)cc(F)c3)NC(=O)Cn3nc(C(F)(F)F)c4c3C[C@@H]3C[C@H]43)n(-c3ccc(Cl)c4c(NS(C)(=O)=O)nn(CCN5C[C@H](F)C[C@H](F)C5)c34)c(=O)c12 (atropisomer, axis not shown; (P)) [Example 572, N-[(1S)-1-[(3P)-3-(4-chloro-1-{2-[(3R,5S)-3,5-difluoropiperidin-1-yl]ethyl}-3-methanesulfonamido-1H-indazol-7-yl)-5-methyl-4-oxo-7-(1,4,4-trifluorocyclohexyl)-3H,4H-pyrido[2,3-d]pyrimidin-2-yl]-2-(3,5-difluorophenyl)ethyl]-2-[(2S,4S)-9-(trifluoromethyl)-7,8-diazatricyclo[4.3.0.0^2,^4]nona-1(6),8-dien-7-yl]acetamide]	0.015	> 20
CC1(F)CCN(CCn2nc(NS(C)(=O)=O)c3c(Cl)ccc(-n4c([C@H](Cc5cc(F)cc(F)c5)NC(=O)Cn5nc(C(F)F)c6c5C(F)(F)[C@@H]5C[C@H]65)nc5nc(C6CCC(F)(F)CC6)ccc5c4=O)c32)CC1 (atropisomer, axis not shown; (P)) [Example 167, N-[(1S)-1-[(3P)-3-{4-chloro-1-[2-(4-fluoro-4-methylpiperidin-1-yl)ethyl]-3-methanesulfonamido-1H-indazol-7-yl}-7-(4,4-difluorocyclohexyl)-4-oxo-3H,4H-pyrido[2,3-d]pyrimidin-2-yl]-2-(3,5-difluorophenyl)ethyl]-2-[(2S,4R)-9-(difluoromethyl)-5,5-difluoro-7,8-diazatricyclo[4.3.0.0^2,^4]nona-1(6),8-dien-7-yl]acetamide]	0.024	> 50
C[C@@H]1CN(Cc2cc(C3CCC(F)(F)CC3)nc3nc([C@H](Cc4cc(F)cc(F)c4)NC(=O)Cn4nc(C(F)F)c5c4C(F)(F)[C@@H]4C[C@H]54)n(-c4ccc(Cl)c5c(NS(C)(=O)=O)nn(CCN6CCC(F)(F)CC6)c45)c(=O)c23)C[C@H](C)O1 (atropisomer, axis not shown; (P)) [Example 525, N-[(1S)-1-[(3P)-3-{4-chloro-1-[2-(4,4-difluoropiperidin-1-yl)ethyl]-3-methanesulfonamido-1H-indazol-7-yl}-7-(4,4-difluorocyclohexyl)-5-{[(2R,6S)-2,6-dimethylmorpholin-4-yl]methyl}-4-oxo-3H,4H-pyrido[2,3-d]pyrimidin-2-yl]-2-(3,5-difluorophenyl)ethyl]-2-[(2S,4R)-9-(difluoromethyl)-5,5-difluoro-7,8-diazatricyclo[4.3.0.0^2,^4]nona-1(6),8-dien-7-yl]acetamide]	0.016	> 20
Cc1cc(C2CCC(F)(F)CC2)nc2nc([C@H](Cc3cc(F)cc(F)c3)NC(=O)Cn3nc(C(F)F)c4c3C(F)(F)[C@@H]3C[C@H]43)n(-c3ccc(Cl)c4c(NS(C)(=O)=O)nn(CC(=O)N5C[C@H]6C[C@H]6C5)c34)c(=O)c12 (atropisomer, axis not shown; (P)) [Example 409, N-[(1S)-1-[(3P)-3-(1-{2-[(1R,5S)-3-azabicyclo[3.1.0]hexan-3-yl]-2-oxoethyl}-4-chloro-3-methanesulfonamido-1H-indazol-7-yl)-7-(4,4-difluorocyclohexyl)-5-methyl-4-oxo-3H,4H-pyrido[2,3-d]pyrimidin-2-yl]-2-(3,5-difluorophenyl)ethyl]-2-[(2S,4R)-9-(difluoromethyl)-5,5-difluoro-7,8-diazatricyclo[4.3.0.0^2,^4]nona-1(6),8-dien-7-yl]acetamide]	0.014	> 20
C[C@H](CN1C[C@H](F)C[C@H](F)C1)n1nc(NS(C)(=O)=O)c2c(Cl)ccc(-n3c([C@H](Cc4cc(F)cc(F)c4)NC(=O)Cn4nc(C(F)F)c5c4C(F)(F)[C@@H]4C[C@H]54)nc4nc(C5CCC(F)(F)CC5)cc(C5CC5)c4c3=O)c21 (atropisomer, axis not shown; (P)) [Example 716, N-[(1S)-1-[(3P)-3-{4-chloro-1-[(2R)-1-[(3R,5S)-3,5-difluoropiperidin-1-yl]propan-2-yl]-3-methanesulfonamido-1H-indazol-7-yl}-5-cyclopropyl-7-(4,4-difluorocyclohexyl)-4-oxo-3H,4H-pyrido[2,3-d]pyrimidin-2-yl]-2-(3,5-difluorophenyl)ethyl]-2-[(2S,4R)-9-(difluoromethyl)-5,5-difluoro-7,8-diazatricyclo[4.3.0.0^2,^4]nona-1(6),8-dien-7-yl]acetamide]	0.035	> 20
Cc1cc(C2(F)CCC(F)(F)CC2)nc2nc([C@H](Cc3cc(F)cc(F)c3)NC(=O)Cn3nc(C4CC4)c4c3C[C@@H]3C[C@H]43)n(-c3ccc(Cl)c4c(NS(C)(=O)=O)nn(CCN5C[C@H](C)OC(C)(C)C5)c34)c(=O)c12 (atropisomer, axis not shown; (P)) [Example 583, N-[(1S)-1-[(3P)-3-(4-chloro-3-methanesulfonamido-1-{2-[(6S)-2,2,6-trimethylmorpholin-4-yl]ethyl}-1H-indazol-7-yl)-5-methyl-4-oxo-7-(1,4,4-trifluorocyclohexyl)-3H,4H-pyrido[2,3-d]pyrimidin-2-yl]-2-(3,5-difluorophenyl)ethyl]-2-[(2S,4S)-9-cyclopropyl-7,8-diazatricyclo[4.3.0.0^2,^4]nona-1(6),8-dien-7-yl]acetamide]	0.031	> 20
CS(=O)(=O)Nc1nn(CCN2CCCC(F)(F)C2)c2c(-n3c([C@H](Cc4cc(F)cc(F)c4)NC(=O)Cn4nc(C(F)F)c5c4C(F)(F)[C@@H]4C[C@H]54)nc4nc(C5CCC(F)(F)CC5)cc(C(F)F)c4c3=O)ccc(Cl)c12 (atropisomer, axis not shown; (P)) [Example 292, N-[(1S)-1-[(3P)-3-{4-chloro-1-[2-(3,3-difluoropiperidin-1-yl)ethyl]-3-methanesulfonamido-1H-indazol-7-yl}-7-(4,4-difluorocyclohexyl)-5-(difluoromethyl)-4-oxo-3H,4H-pyrido[2,3-d]pyrimidin-2-yl]-2-(3,5-difluorophenyl)ethyl]-2-[(2S,4R)-9-(difluoromethyl)-5,5-difluoro-7,8-diazatricyclo[4.3.0.0^2,^4]nona-1(6),8-dien-7-yl]acetamide]	0.016	> 50
CC(=O)c1cc(C2CCC(F)(F)CC2)nc2nc([C@H](Cc3cc(F)cc(F)c3)NC(=O)Cn3nc(C(F)F)c4c3C(F)(F)[C@@H]3C[C@H]43)n(-c3ccc(Cl)c4c(NS(C)(=O)=O)nn(CCN5CCC(F)(F)CC5)c34)c(=O)c12 (atropisomer, axis not shown; (P)) [Example 746, N-[(1S)-1-[(3P)-5-acetyl-3-{4-chloro-1-[2-(4,4-difluoropiperidin-1-yl)ethyl]-3-methanesulfonamido-1H-indazol-7-yl}-7-(4,4-difluorocyclohexyl)-4-oxo-3H,4H-pyrido[2,3-d]pyrimidin-2-yl]-2-(3,5-difluorophenyl)ethyl]-2-[(2S,4R)-9-(difluoromethyl)-5,5-difluoro-7,8-diazatricyclo[4.3.0.0^2,4]nona-1(6),8-dien-7-yl]acetamide]	0.008	> 20
COCCCn1nc(NS(C)(=O)=O)c2c(Cl)ccc(-n3c([C@H](Cc4cc(F)cc(F)c4)NC(=O)Cn4nc(C(F)F)c5c4C(F)(F)[C@@H]4C[C@H]54)nc4nc(C5CCC(F)(F)CC5)cc(NCCN5CCC(F)(F)CC5)c4c3=O)c21 (atropisomer, axis not shown; (P)) [Example 498, N-[(1S)-1-[(3P)-3-[4-chloro-3-methanesulfonamido-1-(3-methoxypropyl)-1H-indazol-7-yl]-7-(4,4-difluorocyclohexyl)-5-{[2-(4,4-difluoropiperidin-1-yl)ethyl]amino}-4-oxo-3H,4H-pyrido[2,3-d]pyrimidin-2-yl]-2-(3,5-difluorophenyl)ethyl]-2-[(2S,4R)-9-(difluoromethyl)-5,5-difluoro-7,8-diazatricyclo[4.3.0.0^2,^4]nona-1(6),8-dien-7-yl]acetamide]	0.018	> 20
C[C@@H]1CN(Cc2cc(C3CCC(F)(F)CC3)nc3nc([C@H](Cc4cc(F)cc(F)c4)NC(=O)Cn4nc(C(F)F)c5c4C(F)(F)[C@@H]4C[C@H]54)n(-c4ccc(Cl)c5c(NS(C)(=O)=O)nn(CCN6CC(C)(C)OC(C)(C)C6)c45)c(=O)c23)C[C@H](C)O1 (atropisomer, axis not shown; (P)) [Example 529, N-[(1S)-1-[(3P)-3-{4-chloro-3-methanesulfonamido-1-[2-(2,2,6,6-tetramethylmorpholin-4-yl)ethyl]-1H-indazol-7-yl}-7-(4,4-difluorocyclohexyl)-5-{[(2R,6S)-2,6-dimethylmorpholin-4-yl]methyl}-4-oxo-3H,4H-pyrido[2,3-d]pyrimidin-2-yl]-2-(3,5-difluorophenyl)ethyl]-2-[(2S,4R)-9-(difluoromethyl)-5,5-difluoro-7,8-diazatricyclo[4.3.0.0^2,4]nona-1(6),8-dien-7-yl]acetamide]	0.017	> 1000
CS(=O)(=O)Nc1nn(CCN2CCC(F)(C(F)(F)F)C2)c2c(-n3c([C@H](Cc4cc(F)cc(F)c4)NC(=O)Cn4nc(C(F)F)c5c4C(F)(F)[C@@H]4C[C@H]54)nc4nc(C5CCC(F)(F)CC5)ccc4c3=O)ccc(Cl)c12 (stereo partly drawn) [Example 191, N-[(1S)-1-[(3P)-3-(4-chloro-1-{2-[3-fluoro-3-(trifluoromethyl)pyrrolidin-1-yl]ethyl}-3-methanesulfonamido-1H-indazol-7-yl)-7-(4,4-difluorocyclohexyl)-4-oxo-3H,4H-pyrido[2,3-d]pyrimidin-2-yl]-2-(3,5-difluorophenyl)ethyl]-2-[(2S,4R)-9-(difluoromethyl)-5,5-difluoro-7,8-diazatricyclo[4.3.0.0^2,^4]nona-1(6),8-dien-7-yl]acetamide]	0.024	> 50
